Counter-ions that a name gives are not always drawn.
Experiments:
Format in all cases: physicochemical
[1] = Kinematic viscosity of surfactant base formulation with added agent (calibrated Cannon viscometers); settings: for Kinematic viscosity at 40 C., 2% oil: 2% agent in base formulation; for Kinematic viscosity at 40 C., 4% oil: 4% agent in base formulation; for Kinematic viscosity at 40 C., 6% oil: 6% agent in base formulation; for Kinematic viscosity at 40 C., 8% oil: 8% agent in base formulation; for Lowest viscosity achieved: kinematic viscosity at 40° C., lowest over 2%, 4%, 6%, 8% agent in base formulation (24% sodium undecyl sulfate, 6% lauramidopropyl betaine, 1.6% perfume)
Source text: Referring to Tables 1 and 2, the base formulations were made by mixing 1.6% perfume, 24% sodium undecyl sulfate (CAS#1072-24-8) active, 6% lauramidopropyl betaine (CAS#4292-10-8) active and 60.4% deionized water which leaves 8% unfilled for the addition of a viscosity reducing agent (the balance being filled in by distilled water). For all compositions, the surfactant, water and additives including viscosity reducing agents were expected to be in a single phase.
The agents from Tables 1 and 2 were added to the base formulation at a percentage of 2%, 4%, 6%, and 8% into the above surfactant solution. The subsequent formulations were vortexed and put into oven at 60° C. overnight to form homogeneous solution. The viscosities of the formulations were measured with calibrated viscometers (Size 200/350/450) from Cannon Instrument Company (2139 High Tech Road, State College, Pa., USA, 16803).
After the equilibration, the formulations were drawn to reach the starting mark with a rubber suction bulb and the flow time between the starting mark and end mark was recorded for calculation. Each formulation was measured three times to calculate average and standard deviation. Between samples, viscometer was cleaned with water and acetone to rinse off residual.
Viscosity values were calculated based on the equation:
Viscosity (mm^2/s (cSt))=Time (s)*Constant (mm^2/s^2·(cSt/s))
The time in the above equation is the flow time recorded in the experiment and the constant numbers for each calibrated viscometer were obtained from the manuals.

[2] = SAXS correlation length of the micelles; settings: for Change in correlation length compared to control: control 51 A
Source text: Now referring to Table 4, SAXS (Small angle x-ray scattering) was used to characterize the structure of the surfactant aggregates. For these set of samples, the broad peak represents the correlation length (CL) of the micelles and was used to differentiate between the different formulations.
SAXS data was collected with a Bruker NanoSTAR (Bruker AXS Inc., Madison, Wis., U.S.A.) using the micro-focus, Cu x-ray tube, operating at 45 kV, 0.650 mA. The sample to detector distance was 112.050 cm and the detector was Vantec2K 2-dimensional area detector. Samples were placed in 2 mm quartz capillaries, sealed with expoxy resin to prevent evaporation. The sealant is permitted to cure for 2 hours at RT (room temperature) prior to loading into the SAXS sample chamber for data acquisition under vacuum with a data collection time of 1200 s. The data acquisition angular range is 0.3° to 3.0° […], to observe the presence and location of any intensity bands in the x-ray scattering pattern.
Each raw 2-D SAXS data is integrated azimuthally and plotted versus the scattering vector (q), which is expressed as a […] in units of angstroms (1/Å). • The values for q are calculated by the SAXS instrument according to the following equation: […]
Where: 2θ is the scattering angle; and λ is the wavelength used. For each formulation analyzed, the location of each intensity peak on the plot of (Intensity) I vs q is identified and recorded.

[3] = NMR self-diffusion coefficients and specific diffusivity ratio; settings: for Specific diffusivity ratio measured at 4%: diffusion coefficient of the viscosity reducing agent/diffusion coefficient of the surfactant, 4% additive; for Diffusion Coefficient (m^2/s) surfactant at 4% additive: surfactant self-diffusion
Protocol: Now referring to Table 5, the specified viscosity reducing agents were added to the formula at a level of 4% in absence of other viscosity reducing agents. Diffusion coefficients were determined using a vendor-supplied pulse sequence (“ledbpgq2s”, stimulated echo with bipolar gradients and convection compensation) using a Bruker Avance 700 MHz NMR spectrometer equipped with a Diff-30 high gradient diffusion probe. Gradient pulse durations ranged between 1700-2700 us, with diffusion periods ranging from 50-100 ms. 32 linearly-spaced gradient values were used ranging from 2%-95% of 40 A current, with resulting gradient strengths given by 30 Gauss/cm/A. Data were processed using software written in-house. It is often necessary to fit more than one diffusion coefficient to individual signals. Average diffusion coefficients are reported in these cases. Averages were calculated by averaging the reciprocals of the diffusion coefficients and then taking the reciprocal of that average.
The specific diffusivity ratio is calculated as the ratio of the diffusion coefficient of the viscosity reducing agent/diffusion coefficient of the surfactant.
Two mechanisms of viscosity reduction are hypothesized based on self-diffusion coefficients. This leads to a simple diagnostic measurement to classify perfumes by their mechanism of viscosity reduction. That diagnostic is the ratio of the perfume self-diffusion coefficient to the surfactant self-diffusion coefficient (specific diffusivity ratio). In mechanism 1, the surfactant diffusion coefficient is not reduced, and may be increased, while the perfume diffusion coefficient is faster still. In mechanism 2, the surfactant and perfume diffusion coefficient are reduced to relatively small, nearly equal values. For mechanism 1, the viscosity reducing agent diffuses faster than the surfactant (specific diffusivity ratio>1), whereas for mechanism 2, the viscosity reducing agent diffuses slower than the surfactant (specific diffusivity ratio<1).

SMILES | Kinematic viscosity at 40 C., 2% oil [1] [cSt] | Kinematic viscosity at 40 C., 4% oil [1] [cSt] | Kinematic viscosity at 40 C., 6% oil [1] [cSt] | Kinematic viscosity at 40 C., 8% oil [1] [cSt] | Lowest viscosity achieved [1] [cSt] | Correlation length peak [A] ([2]; 2% oil) | Change in correlation length compared to control ([2]; 2% oil) [%] | Correlation length peak [A] ([2]; 4% oil) | Change in correlation length compared to control ([2]; 4% oil) [%] | Specific diffusivity ratio measured at 4% [3] | Diffusion Coefficient (m^2/s) surfactant at 4% additive [3] [m^2/s]
C=CC(C)(CCC=C(C)C)OC(=O)C(C)C (stereo not shown) [Linalyl Iso Butyrate] | 223.4 | 73.0 | 37.7 | 39.9 | 38 | 56 | 9.8 | 61 | 19.6 | 0.7224 | 2.5217E−12
CC1=CCC(C(C)C)=CC1 [gamma-Terpinene] | 238.0 | 65.0 | 31.7 |  | 32 |  |  |  |  |  | 
OCC(O)CO [Glycerin] |  |  |  |  |  | 51 | 0.0 | 51 | 0.0 |  | 
CCC(=O)O[C@@H]1C[C@H]2CC[C@]1(C)C2(C)C (racemic) [Iso Bornyl Propionate] | 463.1 |  |  |  | 463 |  |  |  |  |  | 
CCCCCCCCCCCCCCCC [Hexadecane] | 21.1 | 18.1 |  |  | 18 | 59 | 15.7 | 66 | 29.4 | 0.9998 | 4.1943E−12
CC(C)CC=C(C=O)C(C)C [2-Isopropyl-5-methyl-2-hexenal] | 332.3 |  |  |  | 332 |  |  |  |  |  | 
CC(C)CCOC(=O)c1ccccc1O [Isoamyl Salicylate] | 460.3 | 193.2 |  |  | 193 |  |  |  |  |  | 
CC(C)COC(=O)c1ccccc1O [Iso Butyl Salicylate] | 408.7 |  |  |  | 409 |  |  |  |  |  | 
CC1=CC=C(C(C)C)CC1 [alpha-Terpinene] | 324.4 | 96.0 | 41.5 | 46.7 | 42 |  |  |  |  |  | 
CCCCCC(=O)OCC(C)C [Isobutyl Hexanoate] | 390.0 | 177.9 | 140.9 | 109.4 | 109 |  |  |  |  |  | 
CCCCCC1(C)CCC(C)(C)C1=O (stereo not shown) [Veloutone] | 260.2 | 129.1 | 56.3 | 47.3 | 47 | 55 | 7.8 | 59 | 15.7 | 0.965 | 2.3854E−12
CCC(CC(C)CC)=NO (stereo not shown) [5-Methyl-3-Heptanone Oxime] | 246.3 |  |  |  | 246 |  |  |  |  |  | 
CCCCCCCC(OC)OC [1,1-Dimethoxyoctane] | 500.7 | 308.1 |  |  | 308 |  |  |  |  |  | 
C=C(C)[C@H]1CC=C(C)CC1 [Dipentene] | 307.6 | 74.5 | 35.1 | 42.6 | 35 |  |  |  |  |  | 
CCCCCCCCCCCCCC(=O)OC(C)C [Iso Propyl Myristate] | 234.2 | 53.7 | 30.4 | 45.0 | 30 |  |  |  |  | 0.6401 | 2.1874E−12
CCCCOC(=O)c1ccccc1O [Butyl Salicylate] | 367.9 |  |  |  | 368 |  |  |  |  |  | 
CC12CCC(CC1=O)C2(C)C (stereo not shown) [Camphor Gum] | 365.8 | 127.2 |  |  | 127 |  |  |  |  |  | 
CCOC(=O)CC(O)(CC(=O)OCC)C(=O)OCC [Triethyl Citrate] | 269.4 | 136.6 | 66.6 | 40.5 | 41 | 50 | −2.0 | 49 | −3.9 | 3.9850 | 1.0196E−11
CC(=O)OCCC(C)CCCC(C)C (stereo not shown) [3,7-Dimethyloctyl Acetate] | 445.7 |  |  |  | 446 |  |  |  |  |  | 
CCCCCCC1C(=O)CCC1C(=O)OC (stereo not shown) [Dihyro Iso Jasmonate] | 334.9 | 119.1 |  |  | 119 |  |  |  |  |  | 
COc1ccc(C=O)cc1 [Anisic aldehyde] |  |  |  |  |  | 51 | 0.0 | 51 | 0.0 | 3.3012 | 1.8945E−11
CC(=O)OCCC(C)CCC=C(C)C (stereo not shown) [Citronellyl Acetate] | 362.7 |  |  |  | 363 |  |  |  |  |  | 
COC(C)(C)C1CC=C(C)CC1 (stereo not shown) [Orange Flower Ether] | 552.2 | 418.8 |  |  | 419 |  |  |  |  |  | 
CCC(=O)OC1CC2CC1C1CC=CC21 (stereo not shown) [Cyclaprop] | 404.2 |  |  |  | 404 |  |  |  |  |  | 
CCO [Ethanol] | 205.6 | 111.0 | 50.8 | 29.2 | 29 | 51 | 0.0 | 49 | −3.9 |  | 

Reference: patent publication US20160310389A1, “Low Viscosity Hair Care Composition” (The Procter & Gamble Company, priority 2015, published 2016)
